The values that follow come from patent publication US9896659B2, “Methods, kits, and compositions for stem cell self-renewal” (STOWERS INSTITUTE FOR MEDICAL RESEARCH, priority 2011, dated 2018).

The test system of assay [1] is LSK Flk2^− cells. Description: Ex vivo culture of sorted LSK Flk2^− cells with GSK-3β and PTEN inhibitors, expansion by FACS. It is filed as cell-based, mouse. The protocol:
LSK or LSK Flk2^− cells were sorted into 96-well U-bottom tissue culture plates at 100 cells/well with 200 μl media/well. Cells were incubated at 37° C., 5% O2, 5% CO2 (balance N2) for the indicated number of days. One-half total volume of media (see Table 1, below for the base media) was carefully pipetted from the top and replaced with fresh media every other day.
One hundred LSK Flk2^− cells were sorted from wild-type (C57Bl/6) mice and cultured in (1) media, (2) media+1 μM CHIR99021 (a GSK-3β inhibitor, a gift from Dr. Sheng Ding), (3) media+200 nM Dipotassium Bis-peroxo(picolinato)oxovanadate (BpV(pic), a PTEN inhibitor, available from Calbiochem, Cat. No. 203705), (4) media+1 μM CHIR99021+200 nM BpV(pic), (5) media+200 nM Shikonin (also a PTEN inhibitor, available from Calbiochem, Cat. No. 565850), and (6) media+200 nM Shikonin+1 μM CHIR99021. (FIGS. 3B-C). Cells were cultured as described above. Cells were examined at 17 days of culture (FIG. 3B, original magnification 100×) and 23 days (FIG. 3C, original magnification 40×).
LSK Flk2^− cells at 28 days culture in the indicated media conditions were examined (FIG. 3D, original magnification 200×).
FACS analysis of 28 day LSK Flk2^− cells cultured in media+BpV(pic)+CHIR99021 (FIG. 3E) was performed. Cells were pre-gated on live, lineage negative cells.
Fold expansion of LSK Flk2^− cells after 28 days culture in (1) media, (2) media+BpV(pic), (3) media+CHIR99021, and (4) media+CHIR99021+BpV(pic) were analyzed.
Cells cultured for 9 days in (1) media, (2) media+BpV(pic) (200 nM), (3) media+CHIR99021 (100 nM), and (4) media+CHIR99021 (100 nM)+BpV(pic) (200 nM) were re-sorted for LSK Flk2^− cells, and fold expansion of LSK Flk2^− cells after 9 days culture in the indicated conditions was determined (FIG. 3I).
FACS analysis was performed on 9 day LSK Flk2^− cells cultured in media+BpV(pic) (200 nM)+CHIR99021 (100 nM) (FIG. 3J). Cells were pre-gated on live, lineage negative cells.
(Flow cytometry measures light scatter and fluorescence of single cells or particles in a stream.)

Assay [2] has as its system lethally irradiated (10 Gy) CD45.1^+ recipient mice. Description: Transplantation of cultured sorted LSK Flk2^− cells into lethally irradiated recipients, donor engraftment. It counts as in vivo, mouse. The settings on record: 28-day cultures, 1000 re-sorted LSK Flk2^− cells + 2×10^5 competitor cells; peripheral blood 4 weeks post-transplant.
Text: Cells were harvested from the wells prior to transplantation by pipetting up and down several times before transferring to a fresh tube. Residual was then collected by adding more media and repeating. Cells were washed in DMEM (Invitrogen, Cat. No. 31053) without phenol red and added to the appropriate number of whole bone marrow rescue cells from a congenic donor (for 200,000 rescue cells+1,000 re-sorted LSK Flk2^− cells (FIGS. 3F-H) or the non-adherent product of 10 days culture of 100 LSK Flk2^− cultured cells (FIGS. 3I-K) per mouse as indicated). […]
Repopulation was measured at 4 weeks post-transplant by collection of peripheral blood, red blood cell lysis, and staining of CD45.1 (recipient) compared to CD45.2 (donor) engraftment using antibodies purchased from eBiosciences (FITC conjugated CD45.2 (Cat. No. 11-0454-85) and PE-Cy5 conjugated CD45.1 (Cat. No. 15-0453-82)). […] Multi-lineage reconstitution was determined by CD3, B220 (for lymphoid) and Gr1, Mac-1 (for myeloid), as described above.
Cells cultured for 28 days in (1) media, (2) media+BpV(pic), (3) media+CHIR99021 and (4) media+CHIR99021 (1 μM)+BpV(pic) (200 nM) were re-sorted for LSK Flk2^− cells. […] At 4 weeks post-transplant, peripheral blood was analyzed for donor (FIG. 3G) and multi-lineage (FIG. 3H) engraftment. […]
The test system of assay [3] is LSK Flk2^− cells. Put plainly: 10-day culture of bone marrow MNCs with PI3K inhibitor, CHIR99021 or without insulin, expansion of LSK Flk2^− cells. It counts as cell-based, mouse.
Assay [4] deals with LSK Flk2^− cells. Put plainly: 14-day ex vivo expansion of bone marrow MNCs in ST media with or without GSK3β inhibitor, FACS. It counts as cell-based, mouse. The settings on record: Tpo or SCF alone; data not shown.
Assay [5] concerns Lin^−, CD34^+, CD38^− cells. Put plainly: Long-term ex vivo culture of human umbilical cord blood MNCs, Lin^− CD34^+ CD38^− cells by flow cytometry. It is filed as cell-based. As to conditions: 6 weeks culture in STL media; 500 nM 5-Aza-2′-deoxycytidine or 1 μM SR1; relative to STL base media. The protocol: Cells were cultured in STL media, which consists of the following: StemSpan SFEM media (Stem Cell Technologies, Vancouver, Canada) supplemented with 10 μg/ml heparin (Sigma, St. Louis, Mo.), 0.5× Penicillin/Streptomycin (Sigma, St. Louis, Mo.), 10 ng/ml recombinant human (rh) SCF, 20 ng/ml rh-Tpo (Biovision, Inc., Mountain View, Calif.), and 2 mM lithium chloride (LiCl).
Mononuclear cells (MNCs) were isolated from human umbilical cord blood (UCB) and cultured in STL media (activating both Wnt/β-catenin and PI3K/Akt signaling), STL+StemRegenin1 (SR1), or STL+DNMT inhibitor (DNMTi) and analyzed by flow cytometry. […] 1 μM SR1 (Cellagen Technologies, San Diego, Calif.) or 500 nM of DNMTi (5-Aza-2′-deoxycytidine, A3656, Sigma, St. Louis, Mo.) was added where indicated. DNMTi was prepared fresh in DMSO and added from the start of the culture. 24 hours later, about 75% of media was changed using fresh DNMT inhibitor. 60 hours after culture began, no additional DNMT inhibitor was added during media changes.

The next assay relates to NSG recipients. Description: Repopulation of NSG recipients by cultured human UCB cells. It is filed as in vivo. As to conditions: STL media + 15 nM Decitabine, brief exposure; 12 weeks post-secondary transplant. The protocol:
600 HSCs (lineage negative, CD34^+, CD38^− cells) were sorted from human UCB and transplanted into sub-lethally irradiated (3.25 Gy) NSG recipients or cultured for 2 weeks in STL media prior to transplantation. MNCs containing 600 HSCs were also cultured equivalently and transplanted. The uncultured MNC group is not shown due to morbidity of transplant recipients.
MNCs were isolated from human UCB and cultured in STL media or STL media with the DNA methyltransferase inhibitor (DNMTi), Decitabine, added at the concentration of 15 nM. DNMTi was prepared fresh in DMSO and added 12 hours after the start of the culture. Media containing Decitabine was replaced with freshly prepared media every 24 hours two more times. 72 hours after adding Decitabine initially, Decitabine was removed from the culture.
For the transplant experiments, MNCs isolated from human UCB were cultured in media activating the PI3K/Akt pathway (ST media), ST media with StemRegenin1 (SR1), media activating both the PI3K/Akt and Wnt/β-catenin pathways (STL media), or STL media+DNMTi for 14 days. The cultured progeny of 2×10^5 MNCs per recipient were transplanted into sub-lethally irradiated (3.25 Gy) NSG recipients. […] 12 weeks post-secondary transplant, human donor cells repopulation was determined (FIG. 36B).

“Dipotassium Bis-peroxo(picolinato)oxovanadate [BpV(pic)]”: the “Expansion of LSK cells compared to control (photographs)” value in the assay with LSK Flk2^− cells [1] (17 and 23 days culture, 1 μM CHIR99021, 200 nM BpV(pic)) is listed as “greater expansion of LSK cells”. The “Expansion of LSK Flk2^− cells compared to media without inhibitor” value in the assay on LSK Flk2^− cells [1] (28 days culture) is “significant expansion”. Also, the “Mice showing >1% engraftment” value in assay [2] is reported as 0/10. On to `Cn1c(=O)n(-c2ccc(C(C)(C)C#N)cc2)c2c3cc(-c4cnc5ccccc5c4)ccc3ncc21` [NVP-BEZ235], for which the “Effect on the ability of CHIR99021 to enhance expansion” value in the assay on LSK Flk2^− cells [3] (10 days culture with 250 nM CHIR99021 plus PI3K inhibitor) was “ability of CHIR99021 to enhance expansion was negated by PI3K inhibition”. Further, the “Expansion of LSK Flk2^− cells” value in the assay with LSK Flk2^− cells [3] (10 days culture, 250 nM CHIR99021, NVP-BEZ235 at indicated concentrations) is listed as “decreased the ability of LSK Flk2^− cells to expand in a dose-dependent manner”. On to “Tpo: recombinant Thrombopoietin, cytokine”, for which the “HSC expansion with a single cytokine alone” value in the assay on LSK Flk2^− cells [4] is reported as “could not expand HSCs in culture”. For `Nc1ncn([C@H]2C[C@H](O)[C@@H](CO)O2)c(=O)n1` [Decitabine, 5-Aza-2′-deoxycytidine], in assay [5], the “Human UCB-derived HSC expansion in long-term ex vivo culture” value was “human UCB-derived HSC expansion is enhanced”. For the same compound, the “Expansion of functional, primitive human HSCs in serial transplant recipients” value in the assay on NSG recipients is recorded as “further enhanced”. Turning to `CC(C)n1cnc2c(NCCc3ccc(O)cc3)nc(-c3csc4ccccc34)nc21` [SR1], in assay [5], the “Human UCB-derived HSC expansion in long-term ex vivo culture” value is on record as “did not enhance overall HSC expansion in long-term cultures”. Take “insulin: recombinant human insulin in StemSpan media, a major stimulator of the PI3K/Akt pathway”: the “Dependence of phenotypic HSC expansion on medium component” value with LSK Flk2^− cells [3] (ST media with or without insulin, 10 days) is given as “expansion of phenotypic HSCs is dependent on insulin”.

For “SCF: recombinant Stem Cell Factor, cytokine”, in the assay with LSK Flk2^− cells [4], the “HSC expansion with a single cytokine alone” value is recorded as “could not expand HSCs in culture”.
